We go through two compounds from patent US20060024350A1, “Biodegradable ocular devices, methods and systems” (priority 2004, published 2006).

Entries after “also recorded” stand apart in the source; their conditions may differ.

Series [1] in a line: In vivo elution: HPLC detection of TA in tissues after 4-week subretinal implantation. The arrangement: species or system rabbit. The note with it: four weeks after the implant, PCL/TA 60:40 subretinal.
For series [2] the following is noted: 72 hours after injection; cited from earlier work.
For series [3] the following is noted: direct injection, posterior segment; cited from earlier work.

As to `CC1(C)O[C@@H]2C[C@H]3[C@@H]4CCC5=CC(=O)C=C[C@]5(C)[C@@]4(F)[C@@H](O)C[C@]3(C)[C@]2(C(=O)CO)O1` [TA, Triamcinolone acetonide], in series [1], the “TA detection in anterior structures or blood (HPLC)” value is given as “not detected” and the “TA detection in posterior tissue samples (HPLC)” value is recorded as “confirmed the presence; also recorded: localized to the posterior eye segment”.

As to `C[C@]12C=CC(=O)C=C1CC[C@H]1[C@@H]3C[C@@H](O)[C@](O)(C(=O)CO)[C@@]3(C)C[C@H](O)[C@@]12F` [triamcinolone], the “triamcinolone present in the vitreous associated with other tissues including retina, pigment epithelium, sclera” value in series [2] is “less than 1%”. For the same compound, the “adverse or undesirable side effects observed” value in series [3] was “elevations in intraocular pressure and the formation of, or acceleration of the development of cataracts”.
